Assay results from article PMC5333395, “Assessing histone demethylase inhibitors in cells: lessons learned” (Epigenetics & Chromatin, 2017).

Legend:
KDM5C = KDM5C (Homo sapiens, UniProt P41229); set-up: method as in PMID 26741168; conditions: AlphaScreen; in vitro biochemical profiling previously reported; cited from earlier work
KDM3A [1] = target: T1, KDM3A (Homo sapiens, UniProt Q9Y4C1); set-up: method as in PMID 26741168; conditions: AlphaScreen; in vitro biochemical profiling previously reported; cited from earlier work
T1 sequence (Q9Y4C1 1-1321): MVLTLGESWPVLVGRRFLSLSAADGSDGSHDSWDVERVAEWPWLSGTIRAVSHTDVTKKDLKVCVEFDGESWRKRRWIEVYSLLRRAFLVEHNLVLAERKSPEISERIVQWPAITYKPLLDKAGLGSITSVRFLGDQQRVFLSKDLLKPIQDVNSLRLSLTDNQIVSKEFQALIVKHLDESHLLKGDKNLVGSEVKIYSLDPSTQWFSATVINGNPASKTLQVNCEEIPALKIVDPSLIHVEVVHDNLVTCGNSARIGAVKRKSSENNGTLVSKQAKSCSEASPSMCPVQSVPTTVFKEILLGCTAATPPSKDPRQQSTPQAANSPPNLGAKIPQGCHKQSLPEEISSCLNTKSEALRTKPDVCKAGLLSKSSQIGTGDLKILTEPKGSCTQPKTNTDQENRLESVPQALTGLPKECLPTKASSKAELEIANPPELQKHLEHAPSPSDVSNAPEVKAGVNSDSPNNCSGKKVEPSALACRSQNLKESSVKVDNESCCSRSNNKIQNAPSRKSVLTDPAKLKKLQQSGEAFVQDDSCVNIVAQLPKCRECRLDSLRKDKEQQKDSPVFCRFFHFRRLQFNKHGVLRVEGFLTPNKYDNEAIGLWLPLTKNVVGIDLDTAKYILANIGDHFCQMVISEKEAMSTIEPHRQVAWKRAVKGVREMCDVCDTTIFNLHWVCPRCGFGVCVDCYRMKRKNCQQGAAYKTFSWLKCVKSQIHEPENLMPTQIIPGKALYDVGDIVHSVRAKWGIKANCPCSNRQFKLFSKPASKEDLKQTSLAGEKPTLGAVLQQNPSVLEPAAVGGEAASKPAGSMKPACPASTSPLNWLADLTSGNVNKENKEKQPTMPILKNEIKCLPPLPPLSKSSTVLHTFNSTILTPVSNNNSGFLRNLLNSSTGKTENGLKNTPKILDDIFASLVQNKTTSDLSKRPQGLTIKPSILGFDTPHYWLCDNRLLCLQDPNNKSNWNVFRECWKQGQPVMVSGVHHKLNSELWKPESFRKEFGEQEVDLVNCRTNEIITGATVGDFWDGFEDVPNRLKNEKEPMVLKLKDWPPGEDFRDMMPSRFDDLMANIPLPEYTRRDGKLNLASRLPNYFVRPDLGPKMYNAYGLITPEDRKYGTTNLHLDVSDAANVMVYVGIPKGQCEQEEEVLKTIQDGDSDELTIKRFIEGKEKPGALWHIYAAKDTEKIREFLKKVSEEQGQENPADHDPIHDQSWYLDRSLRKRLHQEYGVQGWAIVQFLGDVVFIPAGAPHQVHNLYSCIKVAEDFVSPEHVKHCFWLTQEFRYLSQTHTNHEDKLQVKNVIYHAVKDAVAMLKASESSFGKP

KDM3A [2] = target: T1, KDM3A; experiment: High-content immunofluorescence (IF) assay, overexpressed full-length FLAG-tagged KDM in HeLa cells; assay type: cell-based; conditions: HeLa cells overexpressing WT KDM3A, H3K9me2 mark, 24 h; read-out: KDM3A, in cells, EC50 by IF assay (head: IC50)

Chain of KDM5C (P41229 whole entry): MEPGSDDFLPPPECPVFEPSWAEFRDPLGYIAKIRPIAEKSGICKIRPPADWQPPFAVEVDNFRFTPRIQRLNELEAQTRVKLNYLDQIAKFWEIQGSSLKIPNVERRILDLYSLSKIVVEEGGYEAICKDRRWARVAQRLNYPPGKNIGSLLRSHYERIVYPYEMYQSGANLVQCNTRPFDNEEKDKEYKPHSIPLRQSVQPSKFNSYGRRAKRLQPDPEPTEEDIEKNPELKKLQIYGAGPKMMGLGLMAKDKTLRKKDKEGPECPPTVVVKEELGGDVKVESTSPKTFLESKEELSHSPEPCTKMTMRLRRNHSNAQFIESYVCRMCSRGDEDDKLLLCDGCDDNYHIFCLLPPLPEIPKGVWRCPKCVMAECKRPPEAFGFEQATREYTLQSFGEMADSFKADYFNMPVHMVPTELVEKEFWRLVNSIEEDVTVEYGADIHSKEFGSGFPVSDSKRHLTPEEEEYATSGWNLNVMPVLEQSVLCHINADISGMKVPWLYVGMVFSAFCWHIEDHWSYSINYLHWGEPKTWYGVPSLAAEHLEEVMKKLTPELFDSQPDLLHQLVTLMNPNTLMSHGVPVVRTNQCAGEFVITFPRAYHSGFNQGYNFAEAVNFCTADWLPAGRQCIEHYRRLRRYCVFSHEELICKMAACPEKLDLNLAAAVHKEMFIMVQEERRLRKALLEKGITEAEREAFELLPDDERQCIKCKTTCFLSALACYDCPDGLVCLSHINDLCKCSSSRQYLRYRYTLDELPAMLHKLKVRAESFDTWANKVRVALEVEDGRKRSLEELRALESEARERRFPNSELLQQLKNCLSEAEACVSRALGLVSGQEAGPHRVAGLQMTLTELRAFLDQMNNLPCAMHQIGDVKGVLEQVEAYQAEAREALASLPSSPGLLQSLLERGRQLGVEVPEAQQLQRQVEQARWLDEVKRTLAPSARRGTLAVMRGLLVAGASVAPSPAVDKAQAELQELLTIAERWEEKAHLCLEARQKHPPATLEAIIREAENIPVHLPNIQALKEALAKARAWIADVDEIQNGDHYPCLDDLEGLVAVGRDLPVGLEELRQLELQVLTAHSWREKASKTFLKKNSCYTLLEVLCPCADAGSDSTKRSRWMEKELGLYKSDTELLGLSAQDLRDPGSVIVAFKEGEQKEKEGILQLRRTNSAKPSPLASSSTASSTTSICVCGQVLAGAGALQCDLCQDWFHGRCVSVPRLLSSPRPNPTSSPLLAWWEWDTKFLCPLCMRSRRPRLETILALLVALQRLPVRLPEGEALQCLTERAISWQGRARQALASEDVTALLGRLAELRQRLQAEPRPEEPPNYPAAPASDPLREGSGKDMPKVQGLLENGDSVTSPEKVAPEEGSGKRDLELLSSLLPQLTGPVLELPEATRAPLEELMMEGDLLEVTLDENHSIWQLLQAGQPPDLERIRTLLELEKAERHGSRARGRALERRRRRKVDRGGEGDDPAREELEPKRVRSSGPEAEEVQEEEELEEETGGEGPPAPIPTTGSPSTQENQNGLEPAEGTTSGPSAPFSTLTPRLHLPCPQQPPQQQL

| Structure (SMILES) | IC50 (KDM5C) [nM] | IC50 (KDM3A [1]) [nM] | EC50 (KDM3A [2]) [nM] |
| --- | --- | --- | --- |
| Clc1ccc(N/N=C(\c2ccccc2)c2ccccn2)nc1 [JIB-04 E] | 622 ± 50 | 650 ± 50 | – |
| CCN(CCN(C)C)C(=O)CNCc1cncc(C(N)=O)c1 [KDOAM-32] | – | – | > 100000 |
